How the values were obtained:
[1] = keratin soluble enzyme, N-acylsarcosine, aliphatic monoalkylolamide, or organic acid added; cited from earlier work
[2] = Evaluation Example 3: remaining drug amount in tape preparation after storage; format: physicochemical; settings: formulated into the (meth)acrylic copolymer used in the present invention; Table 3
Method: The tape preparation prepared in Example 4 and Comparative Examples 8 and 9 were cut into 7×10 cm squares and were placed in a polyethylene-aluminum laminate bag and all four sides of the bag were sealed.
The tape agent was stored at 40° C. and 75% R.H. for 3 months and the remaining drug amount in the tape preparation was measured in the same manner as in Evaluation Example 1.
From the residual amount of drug measured, the drug remaining rate was calculated by the following formula: [formula]

[3] = Evaluation Example 1: drug absorption to skin from residual drug amount, HPLC; settings: formulated into the (meth)acrylic copolymer used in the present invention; Table 1
Method: The tape preparation or poultice preparation was peeled off 24 hours after application, and the drug remaining on the applied site was wiped off with defatted cotton containing 1 ml of distilled water. The tape preparation or poultice preparation peeled off was stirred in 200 ml of hot ethanol for 2 hours to extract the drug, cooled to room temperature, and then brought to a constant volume of 200 ml with ethanol. To 5 ml of the solution was added 5 ml of an internal standard substance (300 μg/ml of an aqueous flulubiprofen solution was used), and after bringing to a constant volume of 50 ml with ethanol, the residual drug amount was measured by high performance liquid chromatography (hereinafter abbreviated as HPLC). The defatted cotton was stirred in 200 ml of distilled water for 2 hours to extract the drug, and to 5 ml of the solution was added 5 ml of the internal standard substance. After the mixture was brought to a constant volume of 50 ml with distilled water, the remaining drug amount was measured by HPLC.
The ointment was wiped off with defatted cotton containing ethanol (10 ml of ethanol content) 24 hours after application. […] To 5 ml of the solution was added 5 ml of the above internal standard substance, and after bringing to 50 ml with ethanol, the remaining drug amount was measured by HPLC.

[4] = adhesives containing polar monomers; cited from earlier work

Compound | enhancement of the absorption by additive substance [1] | chemical stability in the preparations (in words) [2] | percutaneous absorption of the drug (in words) [3] | amount formulated at which crystals are not precipitated [4]
CC(C(=O)O)c1cccc(Oc2ccccc2)c1 (stereo not shown) [fenoprofen] | 2 -fold |  |  | 
O=C(O)Cc1ccccc1Nc1c(Cl)cccc1Cl [diclofenac sodium] |  | poor | poor | 
COc1ccc2c(c1)c(CC(=O)O)c(C)n2C(=O)c1ccc(Cl)cc1 [indomethacin] | 2 -fold | poor | poor | 
CC(C(=O)O)c1cccc(C(=O)c2ccccc2)c1 (stereo not shown) [ketoprofen, 3-Benzoylhydratropic acid] |  |  |  | about 40 % by weight

Reference: patent US4938964A, “External dermatological composition” (Showa Denko Kabushiki Kaisha, priority 1987, dated 1990)
